# Test system: Plasmopara viticola
# Experiment: 7-day preventive activity on Plasmopara viticola on vines, preventive leaf application (greenhouse test)
# Type: in vivo
# Parameters: key to Activity (y): scale 100 = healthy plant to 0 = completely infected plant
# Method: Efficacy of the mixtures of one or more compounds belonging to the FOS and SIN groups of compounds in the control of Plasmopara viticola on vines in preventive leaf application (greenhouse test) (Table 1-Table 3) and of the compositions of said mixtures with a further fungicidal component (Table 4).
# Leaves of cultivar Merlot vines, grown in vases, in a conditioned environment (20±1° C., 70% relative humidity) are treated by spraying both sides of the leaves with the mixtures under examination dispersed in an aqueous solution containing a 0.3% of tween 20.
# After remaining 7 days in a conditioned environment, the plants are infected on the lower side with an aqueous suspension of spores of Plasmopara viticola (200,000 spores per cm^3).
# The plants are kept in a humidity saturated environment, at 21° C., for the incubation period of the fungus and, at the end of this period (7 days), the fungicidal activity is evaluated according to an evaluation percentage scale from 100 (healthy plant) to 0 (completely infected plant).
# When the fungicidal activity found experimentally is greater than the value of E, this activity is considered a synergistic effect.
# [1] = Table 4, alone, 125 ppm of equivalent phosphorous acid
# [2] = compound alone, 250 ppm of equivalent phosphorous acid, scale 100 (healthy plant) to 0 (completely infected plant)
# [3] = Table 4, alone, 32 ppm of equivalent metal copper
compound,measurement,setting,value
"O=[PH]([O-])[O-].[Cu+2] [CuHPO3, copper (II) salt of phosphorous acid]",% activity of each single compound,"Table 3, alone, 250 ppm of equivalent phosphorous acid",CuHPO3: 250 ppm** (55) %
same,% activity of each single compound,[1],CuHPO3: 125 ppm** (32) %
same,Activity (y),[2],55
"O=c1ccc2cc(O[C@@H]3O[C@H](CO)[C@@H](O)[C@H](O)[C@H]3O)c(O)cc2o1 [Esculin, esculin]",Activity (y),"SIN compound alone, 25 ppm",10
"O=[PH]([O-])[O-].[Zn+2] [ZnHPO3, zinc salt of phosphorous acid]",% activity of each single compound,[1],ZnHPO3: 125 ppm** (18) %
same,Activity (y),[2],35
[C-]#N.[C-]#N.[C-]#N.[C-]#N.[C-]#N.[C-]#N.[C-]#N.[C-]#N.[C-]#N.[C-]#N.[C-]#N.[C-]#N.[C-]#N.[C-]#N.[C-]#N.[C-]#N.[C-]#N.[C-]#N.[Fe+2].[Fe+2].[Fe+2].[Fe+3].[Fe+3].[Fe+3].[Fe+3] [Prussian blue],Activity (y),"SIN compound alone, 250 ppm",32
same,% activity of each single compound,"Table 3, alone, 125 ppm",Prussian blue: 125 ppm (5) %
same,% activity of each single compound,"Table 4, alone, 125 ppm",Prussian blue: 125 ppm (5) %
CC(=O)Oc1ccccc1C(=O)[O-].CC(=O)Oc1ccccc1C(=O)[O-].[Cu+2] [Cu(ASA)2],% activity of each single compound,[3],Cu(ASA)2: 32 ppm*** (45) %
O=C(O)c1ccccc1[O-].O=C(O)c1ccccc1[O-].[Cu+2] [Cu(SA)],% activity of each single compound,[3],Cu(SA): 32 ppm*** (42) %
"[O]=[Zn] [ZnO, zinc oxide]",Activity (y),"SIN compound alone, 250 ppm",30
same,% activity of each single compound,"Table 3, alone, 125 ppm",ZnO: 125 ppm (14) %
same,% activity of each single compound,"Table 4, alone, 125 ppm",ZnO: 125 ppm (14) %
"COC(=O)CC(NC(=O)[C@@H](NC(=O)OC(C)C)C(C)C)c1ccc(Cl)cc1 (stereo partly drawn) [IR5885, methyl [S—(R,S)]-[3-(N-isopropoxycarbonylvalinyl)-amino]-3-(4-chlorophenyl)propanoate]",% activity of each single compound,"Table 4, alone, 0.45 ppm",IR5885: 0.45 ppm (41) %
silicic acid,Activity (y),"SIN compound alone, 14 ppm of equivalent metal",14
"[Cu+2].c1ccc2c(c1)-c1nc-2nc2[n-]c(nc3nc(nc4[n-]c(n1)c1ccccc41)-c1ccccc1-3)c1ccccc21 [Cu(II) phthalocyanine, copper phthalocyanine]",Activity (y),"SIN compound alone, 32 ppm of equivalent metal",10
same,% activity of each single compound,[3],(8) %
titanium dioxide [TiO2],Activity (y),"SIN compound alone, 250 ppm",13
same,% activity of each single compound,"Table 3, alone, 125 ppm",TiO2: 125 ppm (3) %
same,% activity of each single compound,"Table 4, alone, 125 ppm",TiO2: 125 ppm (3) %
"COC(=O)[C@@H](C)N(C(=O)Cc1ccccc1)c1c(C)cccc1C [IR6141, methyl N-(phenylacetyl)-N-2,6-xylyl-R-alaninate]",inhibition at 5 ppm,"Plasmopara viticola, Table 4, alone, 5 ppm, read-out: % activity of each single compound",45%

# Source: patent US20100197495A1, “Synergistic Mixtures and/or Compositions With a High Fungicidal Activity” (priority 2005, published 2010)
